Reference: US20220323406A1, “METHODS AND COMPOSITIONS FOR DIFFERENTIATING STEM CELLS” (Massachusetts Institute of Technology, priority 2019, published 2022)
Structures can show the parent of a compound that is named as a salt.

Legend:
Conditions in all cases: primary screen
[1] = tested on: ENR+CD organoids (ISC to Paneth cell differentiation); assay: Primary screen: CCh-stimulated lysozyme secretion LYZ.S, 2.5-D 384-well ENR+CD organoid differentiation; type: cell-based, mouse
Source text: (§1) High-throughput screening.

[2] = tested on: ENR+CD organoids; assay: Primary screen: ATP (CellTiter-Glo 3D, CTG) cell number/viability, 2.5-D 384-well ENR+CD organoids;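 further: compounds given at plating and again on day 3 over a 6-day differentiation from ENR+CV stem-cell-enriched precursors, ATP measured on day 6, plate median as control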
[3] = tested on: ENR+CD organoids (ISC to Paneth cell differentiation); assay: Primary screen: basal (non-stimulated) lysozyme secretion LYZ.NS, 2.5-D 384-well ENR+CD organoid differentiation; type: cell-based, mouse
Source text: as §1

Compound	Dose.FC.LYZ.S (log2 fold change) ([1]; dose 0.08 uM)	Dose.FC.LYZ.S (log2 fold change) ([1]; dose 0.40 uM)	Dose.FC.LYZ.S (log2 fold change) ([1]; dose 2.00 uM)	Dose.FC.LYZ.S (log2 fold change) ([1]; dose 10.00 uM)	Dose.FC.CTG (log2 fold change) ([2]; dose 0.08 uM)	Z.CTG (standard z score) ([2]; dose 0.08 uM)	Dose.FC.CTG (log2 fold change) ([2]; dose 0.40 uM)	Z.CTG (standard z score) ([2]; dose 0.40 uM)	Dose.FC.CTG (log2 fold change) ([2]; dose 2.00 uM)	Z.CTG (standard z score) ([2]; dose 2.00 uM)	Dose.FC.CTG (log2 fold change) ([2]; dose 10.00 uM)	Z.CTG (standard z score) ([2]; dose 10.00 uM)	Dose.FC.LYZ.NS (log2 fold change) ([3]; dose 0.08 uM)	Z.LYZ.NS (standard z score) ([3]; dose 0.08 uM)	Dose.FC.LYZ.NS (log2 fold change) ([3]; dose 0.40 uM)	Z.LYZ.NS (standard z score) ([3]; dose 0.40 uM)	Dose.FC.LYZ.NS (log2 fold change) ([3]; dose 2.00 uM)	Z.LYZ.NS (standard z score) ([3]; dose 2.00 uM)	Dose.FC.LYZ.NS (log2 fold change) ([3]; dose 10.00 uM)	Z.LYZ.NS (standard z score) ([3]; dose 10.00 uM)
Oc1ccc2ccccc2c1SSc1c(O)ccc2ccccc12 [IPA-3]	0.064	−0.031	0.067	−0.054	0.219	0.524	−0.332	−0.793	−0.084	−0.202	−0.054	−0.128	0.004	0.031	0.003	0.028	−0.001	−0.010	−0.021	−0.186
C=CC(=O)N1CCC[C@@H](n2nc(-c3ccc(Oc4ccccc4)cc3)c3c(N)ncnc32)C1 [Ibrutinib (PCI-32765)]	−0.139	−0.206		−0.312		−0.065		−1.112		−1.244		−2.224		−0.619		−1.225		−1.763		−1.737
C#Cc1cccc(Nc2ncnc3cc4c(cc23)OCCOCCOCCO4)c1 [Icotinib]	0.094	−0.090	−0.243	−0.419	−0.020		−0.061		−0.406		−1.068		0.029	0.255	−0.073	−0.632	−0.133	−1.160	−0.289	−2.518
CNC(=O)[C@H](Cc1c[nH]c2ccccc12)NC(=O)[C@@H](CC(=O)NO)CC(C)C [Ilomastat (GM6001, Galardin)]	0.214	0.117	0.024	−0.078	0.197	0.470	0.163	0.389	0.091	0.216	−0.110	−0.264	0.055	0.482	−0.011	−0.092	0.007	0.064	−0.106	−0.919
Cc1ccc(NC(=O)c2ccc(CN3CCN(C)CC3)cc2)cc1Nc1nccc(-c2cccnc2)n1 [Imatinib (STI571)]	0.000	0.038	−0.001	−0.037	−0.150	−0.357	0.079	0.188	0.056	0.135	−0.034	−0.082	0.033	0.284	0.012	0.104	0.025	0.217	−0.038	−0.333
CCOC(=O)[C@H](CCc1ccccc1)N[C@@H](C)C(=O)N1C(=O)N(C)C[C@H]1C(=O)O [Imidapril HCl]	−0.042	0.109	−0.035	−0.075	−0.333		−0.148		−0.236		−0.227		−0.006	−0.049	0.000	0.004	0.014	0.121	−0.081	−0.706
NC(=O)c1ccc(I)c([N+](=O)[O-])c1 [Iniparib (B5I-201)]	0.032				0.339	0.810							0.042	0.364						
NC(=O)c1ccc(I)c([N+](=O)[O-])c1 [Iniparib (BSI-201)]		0.035	−0.001	−0.010			0.181	0.432	0.157	0.375	0.244	0.583			0.000	0.003	0.016	0.138	−0.016	−0.139
CCc1c2c(nc3ccc(OC(=O)N4CCC(N5CCCCC5)CC4)cc13)-c1cc3c(c(=O)n1C2)COC(=O)[C@]3(O)CC [Irinotecan HCl Trihydrate]	−0.040	−0.158	−0.293	−0.367	−0.083		−0.205		−0.317		−0.588		−0.019	−0.162	−0.092	−0.805	−0.221	−1.925	−0.272	−2.368
CCc1c2c(nc3ccc(OC(=O)N4CCC(N5CCCCC5)CC4)cc13)-c1cc3c(c(=O)n1C2)COC(=O)[C@]3(O)CC [Irinotecan]	−0.004	−0.145	−0.247	−0.251	−0.111		−0.784		−0.785		−1.235		−0.031	−0.272	−0.072	−0.630	−0.170	−1.476	−0.163	−1.417
Cc1ccc(C(=O)N(CCCN)[C@@H](c2nc3cc(Cl)ccc3c(=O)n2Cc2ccccc2)C(C)C)cc1 [Ispinesib (SB-715992)]	−0.271	−0.296	−0.287	−0.286	−0.323	−0.772	−0.518	−1.238	−0.511	−1.220	−0.713	−1.704	−0.222	−1.931	−0.191	−1.663	−0.196	−1.709	−0.201	−1.752
CCn1c(=O)c2c(nc(/C=C/c3ccc(OC)c(OC)c3)n2C)n(CC)c1=O [Istradefylline]	−0.029	−0.087	−0.096	−0.057	−0.045		0.066		−0.157		−0.038		−0.015	−0.131	−0.035	−0.304	−0.003	−0.022	−0.041	−0.353
CC(C)(C)c1cc(C(C)(C)C)c(NC(=O)c2c[nH]c3ccccc3c2=O)cc1O [Ivacaftor (VX-770)]	0.132	0.189	0.019	−0.253	0.234	0.558	0.145	0.347	−0.148	−0.354	−0.470	−1.123	0.099	0.864	0.127	1.109	0.082	0.717	−0.142	−1.240
